The experiment has as its target T1, NS5B from the BK strain (genotype 1b) (Hepatitis C virus genotype 1b, UniProt P26663).
T1 construct: NS5B from the BK strain (genotype 1b) is expressed in E. coli as a protein in which the 21 C-terminal amino acids are replaced; made in house; host or cells: E. coli
As to the kind of experiment: Hepatitis C polymerase inhibition, NS5B BK strain, 33P-GTP filter assay. The class given is biochemical. To be noted: Table 1A; for inhibition at 20 µM: read-out: HCV pol % inh at 20 μM; for IC50: NS5B BK strain, read-out: HCV pol BK IC50. From the text: The ability of the compounds of the present invention to inhibit Hepatitis C Polymerase was established by the following experimental procedure: • NS5B from the BK strain (genotype 1b) is expressed in E. coli as a protein in which the 21 C-terminal amino acids are replaced with a short linker and a hexahistidine tag ([…]). The purified protein is mixed with radioactive nucleotides and allowed to replicate a heteropolymeric RNA substrate, primed by an endogenous short hairpin, resulting in an approximately 760 nt product. The radioactive product is captured on a filter and quantitated after removal of the unincorporated nucleotides.
Reagents: • 10 mM uridine 5′-triphosphate (UTP) (Promega # p116B) • 10 mM adenine 5′-triphosphate (ATP) (Promega # p113B) • 10 mM cytidine 5′-triphosphate (CTP) (Promega # p114B) • 10 mM guanine 5′-triphosphate (GTP) (Promega # p115B) • Bovine Serum Albumin (BSA) 10 mg/ml NEB (100× at 10 mg/ml) #007-BSA • RNasein (Promega #N251X) 40 U/μl • A-[33P]-GTP (NEN-easytides NEG/606H 3000 Ci/mmol, 370 MBq/ml, 10 mCi/ml) • Falcon polypropylene 96 well plates (Becton Dickinson # 351190) • Millipore Multiscreen assasy system-96 well-filtration plate #MADE NOB 50 • Optiphase Supermix (Wallac) formulated by Fisher • Millipore Multiscreen liner for use in microbeta 1450-106 casette [(Wallac) Perkin Elmer #1450-433] • 1 M(N-[2-hydroxyethyl]piperazine-N′-[2-ethanesulfonic acid]) (HEPES), pH 7.3 • Amersham Pharmacia Biotec (US16924-500 ml) • 1 M MgCl2 (SIGMA #M1028) • Dithiothreitol (DTT) (solid) (SIGMA #D9779) • RNase free water (GIBCO-BRL #10977-023) • Dimethyl sulfoxide (Aldrich #27685-5) • Basilen Blue (Sigma, B5520) • 0.5M ethylenediaminetetraacetic acid (EDTA), pH 8 (GIBCO-BRL #15575-020) • Dibasic sodium phosphate (7-hydrate) (Na2HPO4.7H2O; Baker#3824-07) • Phosphoric acid (Baker, #0262.02)
Further reagent preparation: • 0.5 M Na Phosphate buffer. Per liter, weigh 134 gr Na2HPO4.7H2O, add water to 900 ml. Adjust pH to 7.0 with phosphoric acid. Top off with water to 1 L. • Dilute nucleotides 1:1000 to 10 μM (GTP and CTP) or 1:100 to 100 μM (ATP and UTP) into RNase free water.
Procedure: • (1) Compounds 10 μl at 10 μg/ml in 15% dimethylsulfoxide (DMSO)
When starting from 100 μg/ml compound stock in […]: • Dispense 5 μl 30% DMSO per well • Dispense 5 μl compound (100 μg/ml) per well.
When starting from 50 μg/ml compound stock in 15% DMSO: • Add 10 μl compound per well. • (2) Enzyme Mix:
Add 20 μl enzyme mix into each well of the assay plate. Incubate compound and enzyme at room temperature for 15 minutes • (3) Template mix—prepare ahead
Spin down a tube of RNA (5 μg/tube stored in 75% ethanol and 0.3 M sodium acetate) in a microcentrifuge for 20 minutes at 4° C. One tube is enough for 1–1.5 plates. Remove as much ethanol from the tube as possible by inverting the tube. Be gentle, pellet RNA may not adhere to the tube. Vacuum dry the RNA. Resuspend the RNA by adding 1 ml of DEPC water, close the cap of the tube tightly. To dissolve RNA, incubate RNA solution on ice for ˜60 minutes and gently vortex. Spin briefly to ensure all RNA solution is down to the bottom of the tube before opening cap. Gently transfer RNA solution into a 5 ml or larger tube. Add another 3 ml of DEPC water (total 4 ml of volume).
Add the following volumes of reagents
Add 20 μl template mix per reaction (i.e. 20 ng of pOF per reaction or ˜3 nM) • (4) Incubate reaction at room temperature (22–25° C.) for 2 hours. • (5) Stop reaction by adding 50 μl of 170 mM EDTA. • Final concentration of EDTA is 85 mM. • (6) Prewet filters of Millipore multiscreen assay plate by adding 200 μl of 0.5 M sodium phosphate buffer, pH 7.0 into each well. Let stand at room temperature for 2–3 minutes. • (7) Place the multiscreen filter plate onto a Millipore Manifold and turn on vacuum to allow buffer to flow through. Turn off vacuum. Transfer 80 μl of the reaction product into each well of the filter plate. Let stand for 2–3 minutes. […]

T1 sequence (P26663 2420-2989): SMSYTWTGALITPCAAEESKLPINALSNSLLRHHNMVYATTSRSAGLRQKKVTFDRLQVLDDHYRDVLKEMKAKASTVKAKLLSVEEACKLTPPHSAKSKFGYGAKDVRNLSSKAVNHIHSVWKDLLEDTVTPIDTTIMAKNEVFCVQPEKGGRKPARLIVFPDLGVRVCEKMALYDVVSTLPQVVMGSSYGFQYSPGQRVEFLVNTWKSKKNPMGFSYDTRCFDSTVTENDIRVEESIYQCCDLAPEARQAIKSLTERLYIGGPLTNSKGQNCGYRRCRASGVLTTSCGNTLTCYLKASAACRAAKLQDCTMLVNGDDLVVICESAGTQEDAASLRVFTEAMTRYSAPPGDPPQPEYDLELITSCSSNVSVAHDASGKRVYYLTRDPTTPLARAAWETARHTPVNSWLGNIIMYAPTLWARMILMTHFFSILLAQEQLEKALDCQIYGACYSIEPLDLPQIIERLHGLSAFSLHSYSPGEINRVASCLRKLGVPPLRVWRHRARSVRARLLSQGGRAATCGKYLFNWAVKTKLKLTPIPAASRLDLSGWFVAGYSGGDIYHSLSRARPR

A word on the IC50: it is the midpoint of a concentration-inhibition curve. For the compound `C/C=C/CCC1(CC(=O)O)OCCc2c1[nH]c1c(C(F)(F)F)cccc21` (centres unmarked) [Example 120, [1-[(3E)-pent-3-enyl]-8-(trifluoromethyl)-1,3,4,9-tetrahydropyrano[3,4-b]indol-1-yl]acetic acid], the IC50 was greater than 20 µM. In addition, the inhibition at 20 µM (20 μM compound) was 33%.
The corresponding values for `CC(C)C1(CC(=O)O)OCCc2c1[nH]c1c(Cl)ccc(C(F)(F)F)c21` (centres unmarked) [Example 132, [8-chloro-1-isopropyl-5-(trifluoromethyl)-1,3,4,9-tetrahydropyrano[3,4-b]indol-1-yl]acetic acid] are 9.5 µM and 78%.
The like results for `CCCC1(CC(=O)O)OCCc2c1[nH]c1cccc(-c3ccccc3C(F)(F)F)c21` (centres unmarked) [Example 45, (1-propyl-5-[2-(trifluoromethyl)phenyl]-1,3,4,9-tetrahydropyrano[3,4-b]indol-1-yl)acetic acid] were, in that order, greater than 20 µM and 14%.
The like results for `CC1(CC(=O)O)OCCc2c1[nH]c1c(Br)cccc21` (centres unmarked) [Example 80, (8-bromo-1-methyl-1,3,4,9-tetrahydropyrano[3,4-b]indol-1-yl)acetic acid] were, in that order, greater than 20 µM and 35%.
In the case of `CCC[C@@]1(CC(=O)O)OCCc2c1[nH]c1c(C)ccc(C#N)c21` [Example 3, [(S)-5-cyano-8-methyl-1-propyl-1,3,4,9-tetrahydropyrano[3,4-b]indol-1-yl]acetic acid], the IC50 was 2.4 µM.
On to `N#Cc1c(F)cc(F)c2[nH]c3c(c12)CCOC3(CC(=O)O)c1ccoc1` (centres unmarked) [Example 197, [5-cyano-6,8-difluoro-1-(3-furyl)-1,3,4,9-tetrahydropyrano[3,4-b]indol-1-yl]acetic acid], for which the IC50 was greater than 5 µM. For the same compound, the inhibition at 20 µM (20 μM compound) is 55%.
The like results for `CCC1(CC(=O)O)OCCc2c1[nH]c1c(Cl)cc(C)c(Br)c21` (centres unmarked) [Example 174, (5-bromo-8-chloro-1-ethyl-6-methyl-1,3,4,9-tetrahydropyrano[3,4-b]indol-1-yl)acetic acid] were, in that order, greater than 5 µM and 70%.
With “(1-propyl-8-thien-2-yl-1,3,4,9-tetrahydropyrano[3,4-b]indol-1-yl)acetic acid [Example 95]”, the 50% inhibitory concentration (IC50) was 14.4 µM. For the same compound, where the note is “20 μM compound”, the “HCV pol % inh at 20 μM” value turned out to be 68%.
For `CCCC1(CC(=O)O)OCCc2c1[nH]c1c(F)ccc(-c3ccc(C(F)(F)F)cc3)c21` (centres unmarked) [Example 150, {8-fluoro-1-propyl-5-[4-(trifluoromethyl)phenyl]-1,3,4,9-tetrahydropyrano[3,4-b]indol-1-yl}acetic acid], the IC50 amounted to 9 µM. For the same compound, the inhibition at 20 µM (20 μM compound) is less than 37%.
Take `CCCC1(CC(=O)O)OCCc2c1[nH]c1cccc(-c3ccc(SC)cc3)c21` (centres unmarked) [Example 46, (5-[4-(methylthio)phenyl]-1-propyl-1,3,4,9-tetrahydropyrano[3,4-b]indol-1-yl)acetic acid]: the IC50 is greater than 20 µM. Moreover, the inhibition at 20 µM (20 μM compound) is 15%.
Take `CCCC1(CC(=O)O)OCCc2c1[nH]c1c(F)ccc(C#N)c21` (centres unmarked) [Example 4, (5-cyano-8-fluoro-1-propyl-1,3,4,9-tetrahydro-pyrano[3,4-b]indol-1-yl)acetic acid]: the IC50 is 1 µM.
In the case of `O=C(O)CC1(c2ccccc2)OCCc2c1[nH]c1c(Br)cccc21` (centres unmarked) [Example 86, (8-bromo-1-phenyl-1,3,4,9-tetrahydropyrano[3,4-b]indol-1-yl)acetic acid], the IC50 was greater than 20 µM. The inhibition at 20 µM (20 μM compound) stood at 20%.
The corresponding values for `Cc1cc(Cl)c2[nH]c3c(c2c1Br)CCOC3(CC(=O)O)c1ccc(C(=O)O)cc1` (centres unmarked) [Example 180, 4-[5-bromo-1-(carboxymethyl)-8-chloro-6-methyl-1,3,4,9-tetrahydropyrano[3,4-b]indol-1-yl]benzoic acid] are 0.81 µM and 92%.
`CCCC1(CC(=O)O)OCCc2c1[nH]c1cccc(-c3ccccc3Cl)c21` (centres unmarked) [Example 44, [5-(2-chlorophenyl)-1-propyl-1,3,4,9-tetrahydropyrano[3,4-b]indol-1-yl]acetic acid]: the IC50 was greater than 20 µM. Besides, the inhibition at 20 µM (20 μM compound) came to 41%.
`C/C=C/CCC1(CC(=O)O)OCCc2c1[nH]c1c(F)cc(C)c(C#N)c21` (centres unmarked) [Example 223, {5-cyano-8-fluoro-6-methyl-1-[(3E)-pent-3-enyl]-1,3,4,9-tetrahydropyrano[3,4-b]indol-1-yl}acetic acid]: the IC50 was greater than 5 µM. Moreover, the inhibition at 20 µM (20 μM compound) turned out to be 37%.
Consider `CCCC1(CC(=O)O)OCCc2c1[nH]c1cccc(-c3cccs3)c21` (centres unmarked) [Example 37, (1-propyl-5-thien-2-yl-1,3,4,9-tetrahydropyrano[3,4-b]indol-1-yl)acetic acid], for which the IC50 was greater than 20 µM. Besides, the inhibition at 20 µM (20 μM compound) came to 28%.
The like results for `CC(C)C1(CC(=O)O)OCCc2c1[nH]c1c(Br)cccc21` (centres unmarked) [Example 83, (8-bromo-1-isopropyl-1,3,4,9-tetrahydropyrano[3,4-b]indol-1-yl)acetic acid] were, in that order, greater than 20 µM and 41%.
In the case of `CC1(CC(=O)O)OCCc2c1[nH]c1c(F)ccc(F)c21` (centres unmarked) [Example 122, (5,8-difluoro-1-methyl-1,3,4,9-tetrahydropyrano[3,4-b]indol-1-yl)acetic acid], the IC50 is greater than 20 µM. For the same compound, the inhibition at 20 µM (20 μM compound) amounted to 5%.
The like results for `O=C(O)CC1(c2ccc(C(=O)O)cc2)OCCc2c1[nH]c1c(Cl)cc(Cl)cc21` (centres unmarked) [Example 106, 4-[1-(carboxymethyl)-6,8-dichloro-1,3,4,9-tetrahydropyrano[3,4-b]indol-1-yl]benzoic acid] were, in that order, 2.3 µM and 71%.
Regarding `CCCC1(CC(=O)O)OCCc2c1[nH]c1c(Br)ccc(Br)c21` (centres unmarked) [Example 211, (5,8-dibromo-1-propyl-1,3,4,9-tetrahydropyrano[3,4-b]indol-1-yl)acetic acid], the half-maximal inhibitory concentration (IC50) worked out at 0.13 µM. The inhibition at 20 µM (20 μM compound) came out at 89%.
The like results for `Cc1ccc(F)c2c3c([nH]c12)C(CC(=O)O)(c1ccccc1)OCC3` (centres unmarked) [Example 146, (5-fluoro-8-methyl-1-phenyl-1,3,4,9-tetrahydropyrano[3,4-b]indol-1-yl)acetic acid] were, in that order, greater than 20 µM and 45%.
The corresponding values for `CCCC1(CC(=O)O)OCCc2c1[nH]c1cccc(-c3ccc(F)cc3)c21` (centres unmarked) [Example 48, [5-(4-fluorophenyl)-1-propyl-1,3,4,9-tetrahydropyrano[3,4-b]indol-1-yl]acetic acid] are greater than 20 µM and 18%.
The corresponding values for `CCCCC1(CC(=O)O)OCCc2c1[nH]c1c(Cl)cc(Cl)c(Cl)c21` (centres unmarked) [Example 158, (1-butyl-5,6,8-trichloro-1,3,4,9-tetrahydropyrano[3,4-b]indol-1-yl)acetic acid] are 0.28 µM and 91%.

Values taken from patent publication US7217730B2, “Method for the use of pyranoindole derivatives to treat infection with Hepatitis C virus” (Wyeth, priority 2002, dated 2007).
